The source of these data is PubChem BioAssay AID2305 (GlaxoSmithKline (GSK), 2010).

pIC50: −log10 of the molar value. Where “and” joins values, the source holds several entries; their conditions need not be identical. Equal entries are not always repeated.

This test has as its system P. falciparum 3D7 growth, pLDH absorbance. Nature of the test: P. falciparum 3D7 growth inhibition, dose response, strain 3D7 (AID 2305).

Broadly, the pIC50 is the negative decadic logarithm of the IC50, by convention in mol/L. A lower pIC50 goes with a high IC50. For the compound `CCC(CC)n1c(COC)cc2c3c(N)nc(N)nc3ccc21`, the negative-log IC50 (pIC50) was 8.00.
The value for `Cc1ccc(NC(=O)Cc2noc(CC3CCCN3C(=O)N[C@@H](C)c3ccccc3)n2)cc1` (stereo partly specified) was 6.43; that for `Clc1ccc2c(NCc3ccccc3)ccnc2c1` was 6.47.
Then `Nc1nc(Nc2ccc(Cl)cc2)nc2ccccc12`, with 6.14.
The value for `CC(C)c1cccc(OCC2CCN(c3ncc(C(=O)Nc4ccccc4)cc3Cl)CC2)c1` was 5.97.
In turn, `N#CC(c1ccc(F)cc1)c1ccc2c(C(F)(F)F)cc(C(F)(F)F)nc2n1` (stereo unspecified) gave a pIC50 of 6.14.
In the case of `CCCCCCn1c2c(c(=N)c3c1CCC3)CCC2`, the pIC50 is 6.74. This pIC50 is 0.60 log units higher than that of the compound before.
Then `Oc1ccc(CCNCCCCCCNCCc2ccc(Cl)cc2)c(Cl)c1O`, with 6.11.
Then `CN1CCC(C(=O)N(Cc2ccc(-c3ccc(CNCCc4ccccc4)cn3)cc2)C2CCN(Cc3ccccc3)CC2)CC1`, with 6.10; and `CCCCCCN(CCCCCC)CC(O)c1c(OC)ccc2ccccc12` (stereo unspecified), with 6.24; and `N#Cc1cccc(NC(=O)Nc2ccc(-c3ccc(-c4nc5ccc(C(F)(F)F)cc5[nH]4)cc3)cc2)c1`, with 6.85.
The value for `NC(=O)c1ccc2[nH]cc(C3CCN(CC4CCC(NC(=O)/C=C/c5ccc(Cl)c(Cl)c5)CC4)CC3)c2c1` (stereo unspecified) was 6.06 and 6.12.
Turning to `C=CCOC(=O)N1CCC(CNCc2ccc(-c3ccc(-c4nc5ccc(C(F)(F)F)cc5[nH]4)cc3)cc2)C1` (stereo unspecified), the pIC50 was 6.82.
With `NC1CCN(Cc2ccc(-c3cccc(-c4nc5ccccc5[nH]4)c3)cc2)C1` (stereo unspecified), the pIC50 was 6.07.
Then `N#Cc1ccccc1S(=O)(=O)N1CCCC(CNC(=O)[C@H](CC2CCCCC2)NC(=O)c2cc3ccccc3s2)C1` (stereo partly specified), with 6.29; and `Cc1cc(-c2cccc(CNCc3ccccc3)c2)ccc1S(=O)(=O)NCCN1CCCC1`, with 6.14; and `CC(C)(C)c1ccc(CN2CCC(NC(=O)c3ccc(-c4cccc(Cl)c4)s3)CC2)cc1`, with 5.97.
`Nc1nccc2ccc(-c3ccc4ncccc4c3)cc12`: the pIC50 was 6.96. Against the preceding compound, the pIC50 is 0.99 log units higher.
`O=C(Nc1ccc(Cl)cc1C(=O)Nc1ccncc1)c1ccc(Cl)cc1Cl` showed a pIC50 of 6.21. This pIC50 lies 0.75 log units lower than the previous one.
The value for `O=C(NCCN1CCC(c2ccncc2)CC1)c1ccc(Nc2nccc(Nc3ccc(Oc4ccccc4)cc3)n2)cc1` was 6.14.
Then `COc1ccc2nccc(NN=Cc3cccc(Cl)c3)c2c1`, with 6.72; and `COC1(C)Oc2ccc3cccc([N+](=O)[O-])c3c2C1=O` (stereo unspecified), with 6.20.
Then `Cc1cc2cc(CNCCc3ccccc3Br)ccc2nc1N`, with 6.62; and `CC(C)(C)C(=O)Nc1ccccc1Oc1ccc(Cl)cc1`, with 8.00.
In turn, `COc1ccc2nc3cc(Cl)ccc3c(NCCCCN)c2c1` had a pIC50 of 6.14.
The value for `CCc1c(CCNCCCC(C)CCNCCc2ccc(OC)c(OC)c2CC)ccc(OC)c1OC` (stereo unspecified) was 5.95; that for `CNC(=O)c1cc(NCCCNCc2ccc(Cl)c(C(F)(F)F)c2)nc2ccccc12` was 6.03.
Then `CC(C)c1ccc(OCC(O)CN(C)C(C)C(O)c2ccccc2)c(Br)c1` (stereo unspecified), with 6.09; and `CN(CCN1CCC(c2c[nH]c3ccccc23)CC1)C(=O)OCCCCCNC(=O)/C=C/c1ccc(Cl)c(Cl)c1`, with 6.17.
The value for `CC(=O)C1(c2ccccc2)CCN(CCC2(c3ccc(Cl)c(Cl)c3)CN(C(=O)CC(C)C)CCO2)CC1` (stereo unspecified) was 6.19.
`O=C(Nc1ccc(S(=O)(=O)N2CCCC2)cc1)c1cc(-c2cccnc2)nc2ccc(Cl)cc12`: the pIC50 is 6.52.
Then `Nc1c(Cl)cc(C(O)CNCCCCCCOCCC=C2CCOCC2)cc1Cl` (stereo unspecified), with 6.20; and `CC(Cc1ccc(Oc2ccc(Cl)cc2)cc1)NCC(O)c1cccc(Cl)c1` (stereo unspecified), with 6.13.
Then `CCN(CCC1(c2ccc(Cl)c(Cl)c2)CN(C(=O)c2cc(OC)c(OC)c(OC)c2)CCO1)[C@@H]1C[C@@H]2c3ccccc3C[C@@H]21` (stereo partly specified), with 6.37; and `Cc1cccc2sc(N(CCCn3ccnc3)C(=O)C=Cc3cccs3)nc12`, with 5.89.
Then `Clc1cc(Cl)c2cc(CN[C@H]3CCC[C@@H]3CNc3nc4ccccc4[nH]3)[nH]c2c1`, with 6.57.
As to `Cc1ccc(Nc2nc(NN=Cc3cccc([N+](=O)[O-])c3)nc(Nc3ccccc3)n2)c(C)c1`, the pIC50 is 6.20.
Then `O=C1O[C@H](c2ccccc2)[C@H](c2ccccc2)N(C(=O)OCc2ccccc2)[C@H]1Cc1ccccc1C1CCCC1`, with 7.22; and `COc1ccc(CCNCC(O)COc2nccc3c(S(=O)(=O)N4CCCNCC4)cccc23)cc1OC` (stereo unspecified), with 6.57.
Then `CCOc1cc(CC)ccc1C1CCN(CCCCNC(=O)c2ccc(NC(=O)c3ccc(C#N)cc3)cc2)CC1`, with 6.30; and `COc1cc(NCCCCCNc2cc(Cl)nc3ccccc23)nc2ccccc12`, with 6.11.
The value for `CCOC(=O)[C@H](Cc1cc([N+](=O)[O-])c(Oc2ccc(OC)c(Cc3ccc(OC)c(C(C)C)c3)c2)c([N+](=O)[O-])c1)NC(=O)C(F)(F)F` was 6.01.
In turn, `CCCOc1cc(OCCC)cc(-c2ccc(C(=O)Nc3ccc4ccc(C)nc4c3)c(=O)[nH]2)c1` showed a pIC50 of 6.12.
Then `N#Cc1cncc(-c2nc3c(N4CCN(c5cnccn5)CC4)cccc3n2CCNCc2ccccc2)c1`, with 6.04; and `O=C(Nc1ccc(C(=O)OCC(c2ccccc2)c2ccccc2)cc1)N[C@@H](Cc1ccc(O)cc1)C(=O)NC1CCN(Cc2ccc(O)cc2)C1` (stereo partly specified), with 6.11.
Then `Cc1ccc(NC(=S)NC2CCN(CCCCCNC(=O)/C=C/c3ccc(Cl)c(Cl)c3)CC2)cc1Cl`, with 6.00.
`Fc1ccc(Nc2ccnc3cc(-c4cccc(CNCCN5CCOCC5)c4)ccc23)c(Cl)c1` showed a pIC50 of 6.85.
The value for `CC(=O)Nc1ccc2[nH]cc(C3CCN(CC4CCC(NC(=O)/C=C/c5ccccc5Cl)CC4)CC3)c2n1` (stereo unspecified) was 6.44; that for `O=[N+]([O-])c1cccc(-c2ccc(C=NNc3cc(N4CCCC4)nc(N4CCCC4)n3)o2)c1` was 6.15.
The value for `Cc1ccccc1C1CCN(C2CCC(NC(=O)c3ccc(-c4ccccc4F)o3)CC2)CC1` (stereo unspecified) was 5.98; that for `C#CCN(Cc1cc2c(=O)[nH]c(N)nc2cc1C)c1ccc(C(=O)N[C@@H](CCC(=O)O)C(=O)O)cc1` was 6.20; that for `CN(C)c1ccc(CN2CCC(CNC(=O)c3cc(-c4cccc(C(F)(F)F)c4)cs3)C2)cc1` (stereo unspecified) was 6.06.
Then `COc1cc2c(cc1OCCN1CCC(N)CC1)N(C(=O)/C=C/c1ccccc1Cl)CC2`, with 5.95; and `COc1ccc(-c2cnc(NCc3ccccc3)nc2)cc1CNC1CCN(C)CC1`, with 6.11.
The compound `CCC[C@@H]([C@@H](CC(C)C)C(=O)N[C@@H](CCCN=C(N)NS(C)(=O)=O)C(=O)Nc1nccs1)N(O)C=O` gave a pIC50 of 6.03.
On to `CN1CCN(CCCN(Cc2csc(-c3ccc(CNCc4ccccc4)cc3)n2)S(=O)(=O)c2ccccc2Cl)CC1`, for which the pIC50 is 6.06.
Then `COc1ccc(-c2ccc(CNC(=O)c3cccc(C#N)c3)c(F)c2)cc1CN1CCCN(C)CC1`, with 6.10; and `COc1ccccc1C1CCN(C2CCC(NC(=O)c3cc4ccccc4[nH]3)CC2)CC1` (stereo unspecified), with 5.92.
Then `COc1ccc2nccc([C@@H](O)CN3CCC(NCc4cc5ccccc5[nH]4)CC3)c2n1`, with 6.20; and `CCCCc1cc(Cc2cnc(N)nc2N)cc(OC)c1OC`, with 5.98.
The value for `O=C(NCCN1CCC(NC(=O)c2ccc(-c3ccccn3)s2)CC1)c1cccc(C(F)(F)F)c1` was 6.07.
For `CC(C)CCN1CCC(Oc2ccc(NC(=O)c3ccccc3)cc2Cl)CC1`, the pIC50 was 5.89.
The compound `CC1(C)N=C(N)N=C(N)N1c1cc(Cl)c(Cl)c(Cl)c1` gave a negative logarithm of the IC50 (pIC50) of 8.00.
The value for `O=C(Nc1cc(C(F)(F)F)cc(C(F)(F)F)c1)NC1CCC(CN2CCC(c3c[nH]c4ccccc34)CC2)CC1` (stereo unspecified) was 6.09 and 6.34; that for `O=C(NC1CCN(Cc2ccccc2)CC1)c1ccc(-c2nc3cc(Cl)c(F)cc3[nH]2)s1` was 6.51; that for `N#Cc1ccc2c(c1)CCN(CCC1CCC(NC(=O)/C=C/c3c[nH]c4c(Br)cccc34)CC1)CC2` (stereo unspecified) was 6.42.
The value for `C=CCn1c(Sc2ccc(C#N)c([N+](=O)[O-])c2)nnc1-c1ccc(OC)cc1` was 6.10; that for `CCCCCCn1c(Sc2ccc(C#N)c([N+](=O)[O-])c2)nnc1-c1ccc(OC)cc1` was 6.07; that for `COc1cccc(C=NNc2cc(C)nc3ccccc23)c1` was 6.03.
Then `CC(=O)N/N=C/[C@H](CCc1ccccc1)NC(=O)[C@H](CC(C)C)NC(=O)c1cccc(OCCN2CCOCC2)c1`, with 6.62; and `CCCCc1ccc(C(=O)Nc2ccc3nc(N4CCN(CC)CC4)cc(C)c3c2)cc1`, with 6.04.
For the compound `CCCNC(=O)c1cncc(-c2ccc(CNC(CC)c3ccccc3)cc2)c1` (stereo unspecified), the pIC50 is 6.06.
Consider `O=C(Nc1ccc(Cl)cc1)c1ccc(CN2CCCN(Cc3ccsc3)CC2)cc1`, for which the pIC50 is 6.07. The pIC50 values of the last two compounds are within 0.2 log units of each other.
The value for `CC(=O)Nc1cccc(C(=O)Nc2ccc(-c3ccc(-c4nc5c(C)cccc5[nH]4)s3)cc2)c1` was 5.76.
The value for `COC(=O)c1ccc(CN2CCC(N(Cc3cccc(Oc4ccccc4)c3)S(=O)(=O)c3ccc(NC(C)=O)cc3)CC2)cc1` was 5.98; that for `COc1cc2ccccc2c(OC)c1CCNCCCCNCCc1c(OC)cc2ccccc2c1OC` was 6.05.
The value for `CC(C)(C)C1CCc2nc(N)nc(N)c2C1` (stereo unspecified) was 8.00; that for `CCCCCCn1c(Sc2ccc(C#N)c([N+](=O)[O-])c2)nnc1-c1cc(OC)cc(OC)c1` was 6.11.
The compound `COc1ccc(NC(=O)Nc2cccc(-c3cccc(-c4nc5c(C)cccc5[nH]4)c3)c2)cc1` showed a pIC50 of 6.40.
The value for `CC(Nc1ccc2c(c1)CCC2)C(=O)Nc1cc(C(F)(F)F)ccc1N1CCOCC1` (stereo unspecified) was 7.05; that for `Oc1ccc(CCCNc2nc(NCc3cccc4ccccc34)nc(NC3CCNCC3)n2)cc1` was 5.95.
The compound `O=C(Nc1ccc(N2CCN(Cc3cccc(F)c3)CC2)cc1)c1cccs1` gave a pIC50 of 6.17.
The compound `COc1nc(Nc2cccc(C)c2)nc(OC)n1` showed a pIC50 of 6.00.
For `Cc1[nH]c(C)c(-c2ccc(Br)cc2)c(=O)c1Cl`, the pIC50 is 6.08.
Then `O=C(NCC1CCN(CC2CCCCC2)C1)c1cc(-c2cccc(C(F)(F)F)c2)cs1` (stereo unspecified), with 6.13; and `COc1ccccc1-c1cc(C(=O)N2CCN(S(=O)(=O)c3ccc(C)cc3)CC2)[nH]n1`, with 5.94.
